What was measured:
tumor cells = details: intraperitoneal injection of tumor cells; cited from earlier work
[1] = tested on: primary human fibroblasts; experiment: caspase 3/7 activity apoptosis assay (ApoTox-Glo) in proliferating and quiescent fibroblasts; type: cell-based; details: for effect on MG132-induced apoptosis: 2-ME with increasing MG132
Experimental: Referring to FIG. 2A, primary human fibroblasts were tested either in a proliferating state or after being induced into quiescence. Quiescence may be induced by either contact inhibition or serum starvation. Cells were treated with DHEA for four days, with bafilomycin added on the fourth day. Apoptosis was assessed based on the activity of caspase 3/7 for a fluorogenic substrate.
PPP inhibition and apoptosis analysis: Apoptosis was measured based on the levels of caspase 3/7 released into the media using the ApoTox-Glo Triplex Assay according to the manufacturer's instructions (Promega Corp., Madison, Wis.). Cells were plated in triplicate at 10,000 cells per well in white-walled, clear-bottom 96-well plates (Costar, Corning Life Sciences, Lowell, Mass.). For contact inhibition, cells were plated 7 days prior to the start of treatment, for serum starvation cells were plated 4 days prior to treatment and switched to 0.1% serum media for the remaining 3 days, while proliferating cells were plated the day prior to the start of treatment. […] Cells in serum starvation conditions were incubated in 0.1% serum during treatment as well. The apoptosis reagent was added at 100 μl per well and incubated for 1 h prior to reading. Luminescence was read from the top using a Synergy-2 plate reader (Biotek, Winooski, Vt.). Luminescence data were normalized to the vehicle only condition.
Apoptosis induction was assessed by monitoring caspase 3/7 activity using a luminescent caspase substrate. This assay is optimized for high-throughput screening in 96-well plates and allows multiple concentrations and combination of drugs to be tested in triplicate at different time points. […] Therefore, this assay was used to compare proliferating and serum-starved cells only.

breast cancer cell lines = details: cited from earlier work
[2] = tested on: four day serum starved fibroblasts; experiment: induction of apoptosis in quiescent fibroblasts by DHEA and/or autophagy inhibitor combined with proteasome inhibitors; type: cell-based, human; details: proteasome inhibitor alone; four day serum starved fibroblasts
Experimental: Referring to FIG. 17, the effect of treatment using DHEA and/or an autophagy inhibitor combined with proteasome inhibitors on apoptosis in quiescent cells was analyzed.
In this experiment, the proteasome inhibitor, bortezomib, was used in varying concentrations with DHEA during a 48 hour treatment.

[3] = tested on: proliferating and quiescent fibroblasts; experiment: annexin V / PI flow cytometry after proteasome inhibition; type: cell-based, human; details: 24 hours
Experimental: To elucidate the responses of proliferating and quiescent fibroblasts to proteasome inhibition, the effects of known proteasome inhibitors on proliferating and quiescent fibroblasts were examined.
At the highest dose (10 μM), approximately 50% of proliferating cells were apoptotic (FIG. 24A-lower right (Q4), upper right (Q2), and upper left (Q1) quadrants represent early apoptosis, late apoptosis, and very late apoptosis or necrosis, respectively). In comparison, quiescent fibroblasts were largely unaffected by MG132 treatment, showing far lower levels of apoptosis.

[4] = tested on: skin papillomas and carcinomas; details: cited from earlier work; for skin papilloma development: mouse
[5] = tested on: neoplasms, lymphoblastic lymphoma; details: p53-deficient mouse; cited from earlier work
LC3-II = LC3-II immunoblot (autophagy / autophagic flux); type: cell-based, human
Experimental: (§1) The levels of autophagy components—Atg5/Atg12, Atg7, Atg3, and LC3-I and LC3-II—were monitored in proliferating and contact-inhibited fibroblasts using immunoblotting (FIG. 21A). As a positive control for autophagy induction, samples of cells in each cell cycle state were also incubated in Kreb's Ringer Bicarbonate solution (KRB), a protocol that induces autophagy through amino acid starvation and elimination of other nutrients except glucose. Levels of Atg5/Atg12, Atg7, and LC3-II were elevated in all of the amino acid starvation and contact-inhibition states as compared to the proliferating state (FIG. 21A). Atg3 was induced in all quiescent states compared with proliferating states, including amino acid starvation. In order to differentiate whether the high levels of autophagy proteins resulted from a blockade of autophagy degradation or active flux through the pathway, we monitored the levels of LC3-II in proliferating and 7 dCI fibroblasts in the presence of bafilomycin A1 (Baf-A1). Baf-A1 is a vacuolar-type H^+-ATPase inhibitor that prevents autophagosome fusion with the lysosome due to an increase in lysosomal pH. […] This finding is consistent with active autophagic flux in quiescent fibroblasts
In addition to its role in providing amino acids and energy under starvation conditions, autophagy is involved in maintenance of cellular homeostasis and resistance to tumorigenesis through degradation of old or damaged proteins and entire organelles. It was hypothesized that autophagy in contact-inhibited cells could function to degrade old and/or damaged proteins that would otherwise accumulate in the cytoplasm due to lack of cell division as a mechanism for dilution of these proteins. Oxidation of proteins causes the formation of carbonyl groups on amino acids, and carbonylation can disrupt protein function. To monitor the extent of protein oxidation in proliferating and contact-inhibited fibroblasts, the protein carbonyl groups were derivatized using 2,4-dinitrophenylhydrazine (DNP), and monitored using immunoblotting with an antibody that recognizes the covalently added DNP. The levels of oxidized proteins in proliferating and 7 dCI fibroblasts were monitored in cells that were either competent to perform autophagy (control), or were stably expressing an shRNA against the essential autophagy components Atg5 (sh-Atg5) or Atg7 (sh-Atg7), which are known to represent autophagy-defective phenotypes in other model systems. […] In contact-inhibited fibroblasts, in contrast, the levels of oxidized proteins increased 1.5-fold±0.1 in 7 dCI sh-Atg5 fibroblasts as compared to vector control counterparts (p=0.009) (FIG. 22B). […]
To test this hypothesis, the levels of an autophagy-specific form of the LC3 protein, LC3 II, were monitored compared to a housekeeping protein (Klionsky et al., 2008, “Guidelines for the use and interpretation of assays for monitoring autophagy in higher eukaryotes,” Autophagy 4, 151-175, which is incorporated herein by reference as if fully set forth). […]
We observed an increase in the ratio of LC3 II to GAPDH in response to MG132 treatment for cells in proliferating, contact-inhibited and serum-starved states (FIG. 25B). To test whether the high levels of LC3 II in quiescent cells in response to MG132 treatment result from a blockade of autophagy degradation or from active flux through the pathway, LC3 II levels were monitored in proliferating and quiescent fibroblasts treated with MG132 in the presence or absence of bafilomycin A1 (Baf). […]

p62/SQSTM1 = experiment: p62 immunoblot (autophagic flux); type: cell-based, human; details: contact-inhibited (7 dCI) fibroblasts vs proliferating or vehicle/non-treated controls
Experimental: as §1

Question: For `Cc1ncc(C[n+]2csc(CCO)c2C)c(=O)[nH]1` [oxythiamine], which tumor growth (tumor cells) is on record?
Answer: inhibit tumor growth

Question: For `CCN(CCO)CCCC(C)Nc1ccnc2cc(Cl)ccc12` (stereo not drawn) [hydroxychloroquine], which induction of apoptosis ([1]; serum starved fibroblasts, FIG. 2B) is on record?
Answer: induction of apoptosis

Question: With `FC(F)(F)c1ccc2c(NCCCN3CCN(c4ccnc5cc(Cl)ccc45)CC3)ccnc2c1` [{3-[4-(7-chloro-quinolin-4-yl)-piperazin-1-yl]-propyl}-(7-rifluoromethyl-quinolin-4-yl)-amine] as the compound, how does the antiproliferative effects (breast cancer cell lines) read?
Answer: very effective

Question: For `CC(C)C[C@H](NC(=O)[C@H](Cc1ccccc1)NC(=O)c1cnccn1)B(O)O` [bortezomib], which “induction of apoptosis (caspase 3/7)” value ([1]; bortezomib, serum-starved compared to proliferating fibroblasts) is on record?
Answer: relatively low

Question: And the apoptotic induction [2]?
Answer: did not result in apoptotic induction

Question: With `CC[C@H](C)[C@H](NC(=O)[C@H]([C@@H](C)CC)N(C)C(C)=O)C(=O)N[C@H](C(=O)N[C@@H](CC(C)C)C(=O)[C@@]1(C)CO1)[C@@H](C)O` [epoxomicin] as the compound, how does the “reduction of viability of proliferating cells” value ([3]; 1 μM) read?
Answer: ~50%

Question: What about the “proliferating cell viability (fraction PI negative)” value ([3]; proliferating cells) of the same compound?
Answer: statistically significant, dose-dependent decrease

Question: And the quiescent cell viability ([3]; quiescent cells, up to 10 μM MG132, 1 μM epoxomicin)?
Answer: maintained high viability

Question: With `C[C@]12CCCCC1=CC[C@@H]1[C@@H]2CC[C@]2(C)C(=O)[C@H](F)C[C@@H]12` [16α-fluoro-5-androsten-17-one] as the compound, how does the skin papilloma development [4] read?
Answer: effective in inhibiting skin papilloma development

Question: And the “death due to neoplasms” value [5]?
Answer: delay death due to neoplasms

Question: Which antiproliferative effects (breast cancer cell lines) does the source give for `FC(F)(F)c1ccc2c(N3CCN(CCCNc4ccnc5cc(Cl)ccc45)CC3)ccnc2c1` [7-chloro-N-(3-(4-(7-trifluoromethyl)quinolin-4-yl)piperazin-1-yl)propyl)quinolin-4-amine] here?
Answer: very effective

Question: For `C[C@]12CCCC[C@@H]1CC[C@@H]1[C@@H]2CC[C@]2(C)C(=O)[C@H](F)C[C@@H]12` [16a-fluoro-5a-androstan-17-one], which skin papilloma development [4] is on record?
Answer: effective in inhibiting skin papilloma development

Question: For `C[C@H]1CC[C@@]2(C)C(=CC[C@@H]3[C@@H]2CC[C@]2(C)C(=O)CC[C@@H]32)C1` [3-β-methylandrost-5-en-17-one], which skin papilloma development [4] is on record?
Answer: inhibits skin papilloma development

Question: And the “development of skin papillomas and carcinomas” value ([4]; topical 7,12-dimethylbenz(a)anthracene (DMBA), mice)?
Answer: even more potent chemopreventive effect

Question: Which “effect on MG132-induced apoptosis” value ([1]; proliferating fibroblasts) does the source give for `COc1cc2c(cc1O)CC[C@@H]1[C@@H]2CC[C@]2(C)[C@@H](O)CC[C@@H]12` [2-ME, 2-methoxyestradiol] here?
Answer: little effect

Question: And the “effect on MG132-induced apoptosis” value ([1]; serum-starved fibroblasts)?
Answer: sensitized

Question: Which “effect on MG132-induced caspase 3/7 activity” value ([1]; 100 nM Baf, proliferating cells, 24 hours post treatment) does the source give for `CO/C1=C\C(C)=C\[C@@H](C)[C@@H](O)[C@@H](C)C/C(C)=C/C=C/[C@H](OC)[C@@H]([C@@H](C)[C@@H](O)[C@H](C)[C@@]2(O)C[C@@H](O)[C@H](C)[C@@H](C(C)C)O2)OC1=O` [Baf, bafilomycin A1] here?
Answer: slight reduction

Question: And the “effect on MG132-induced apoptosis (caspase 3/7)” value ([1]; 100 nM Baf, proliferating fibroblasts, 48 hours post treatment)?
Answer: no significant effect

Question: What about the “effect on MG132-induced apoptosis (caspase 3/7)” value ([1]; 100 nM Baf, serum-starved fibroblasts) of the same compound?
Answer: strongly enhanced

Question: And the “effect on bortezomib-induced caspase 3/7 activity” value ([1]; proliferating fibroblasts, 24 hours post treatment)?
Answer: reduced

Question: What about the “effect on bortezomib-induced caspase 3/7 activity” value ([1]; proliferating fibroblasts, after 48 hours) of the same compound?
Answer: little effect

Question: And the “induction of apoptosis in the presence of Baf vs MG132 alone” value ([1]; serum-starved fibroblasts, 48 hours, 10 μM MG132)?
Answer: more than doubled

Question: What about the “LC3 II to GAPDH ratio vs MG132 alone” value (LC3-II; Baf combined with MG132, serum-starved cells) of the same compound?
Answer: did not change

Question: What about the “LC3 II to GAPDH ratio vs MG132 alone” value (LC3-II; Baf in conjunction with MG132, proliferating and contact-inhibited cells) of the same compound?
Answer: further increase

Question: And the “ratio of LC3 II to GAPDH” value (LC3-II; Baf-treated proliferating and quiescent cells)?
Answer: increase

Question: And the “levels of LC3-II” value (LC3-II; contact-inhibited (7 dCI) fibroblasts vs proliferating or vehicle/non-treated controls)?
Answer: further increase

Question: What about the “levels of p62/SQSTM1” value (p62/SQSTM1) of the same compound?
Answer: further increase

From US20130064815A1, “INDUCING APOPTOSIS IN QUIESCENT CELLS” (THE TRUSTEES OF PRINCETON UNIVERSITY, priority 2011, published 2013)
